Laboratory results as given in US20170103183A1, “Model Generation for Drug Determination” (NORWEGIAN UNIVERSITY OF SCIENCE AND TECHNOLOGY, priority 2015, published 2017).

Tested on: AGS cells xenograft tumors
Experiment: Subcutaneous AGS xenograft tumors in Balb/c mice
Type: in vivo
Details: single agent, low dose (PI103 5 mg/kg/d; (5Z)-7-oxozeaenol 3 mg/kg/d)
Protocol: To validate the beneficial response to one of the combination predicted and validated in cell line experiments the inventors generated subcutaneously injected xenograft tumors in Balb/c mice. 100 μl of 2×10^5 AGS cells were mixed with 100 μl of Matrigel and injected subcutaneously n the right flanks of 40 mice. Tumors were allowed to grow for 4 weeks, and mice with palpable tumors (n=30) were randomized to four groups: control, PI103 (5 mg/kg/d), (5Z)-7-oxozeaenol (3 mg/kg/d) and combination group which received both PI103 (5 mg/kg/d) and (5Z)-7oxozeaenol (3 mg/kg/d). Mice were injected with inhibitors or vehicle three times per week for a total of seven injections. Tumors were measured twice weekly using callipers and estimated volume from the formula V=0.5*d12*d2, where d1 is shortest diameter and d2 is longest diameter of tumor. Randomization was set up so that tumor volume was similar among groups at onset of treatment. […] Similar results were obtained for Mann-Whitney tests.

SMILES	activity of individual agent on tumor size compared to control
COc1cc(O)c2c(c1)/C=C/C[C@H](O)[C@H](O)C(=O)/C=C\C[C@H](C)OC2=O [(5Z)-7-oxozeaenol]	non-significant
Oc1cccc(-c2nc(N3CCOCC3)c3oc4ncccc4c3n2)c1 [PI103]	non-significant
